Structures can show the parent of a compound that is named as a salt. Where two headings read alike, the source gives them in different places.

The target in this assay is T1, human mAChR M4 (Homo sapiens, UniProt P08173).
T1 sequence (P08173 1-479): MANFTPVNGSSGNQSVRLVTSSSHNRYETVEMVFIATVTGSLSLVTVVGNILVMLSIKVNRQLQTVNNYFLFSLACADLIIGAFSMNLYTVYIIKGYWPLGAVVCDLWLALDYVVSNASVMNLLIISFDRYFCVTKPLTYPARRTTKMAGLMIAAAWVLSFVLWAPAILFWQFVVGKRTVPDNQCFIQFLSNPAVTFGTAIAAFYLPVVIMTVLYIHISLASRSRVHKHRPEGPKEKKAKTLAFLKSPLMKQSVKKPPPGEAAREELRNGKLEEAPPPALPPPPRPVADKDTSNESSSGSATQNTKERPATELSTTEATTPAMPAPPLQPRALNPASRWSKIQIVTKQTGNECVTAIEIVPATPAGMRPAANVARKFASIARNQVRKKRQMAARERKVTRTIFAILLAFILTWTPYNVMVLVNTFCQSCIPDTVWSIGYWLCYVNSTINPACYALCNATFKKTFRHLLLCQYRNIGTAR
Briefly: mAChR M4 cell-based functional assay (calcium flux), human M4.

The mark [1] stands for this setting: Human M4, % ACh maximum at 30 μM.
Setting [2] is: Human M4 EC50, CHO-K1 hM4-Gqi5 cells, calcium flux, increase in EC20 acetylcholine response.
The mark [3] stands for this setting: Table 10, % ACh maximum at 30 μM.
Setting [4] is: Human M4 EC50 (nM), Table 10, calcium flux, PAM activity with EC20 acetylcholine.
Where [5] appears, read: Human M4 EC50 (nM), Table 11, calcium flux, PAM activity with EC20 acetylcholine.
[6] abbreviates: Table 11, % ACh maximum at 30 μM.

With `Cc1nnc2oc3c(NCc4ccc(C(C)(C)O)cc4)ncnc3c2c1C` [Compound 65, 2-[4-[[(3,4-dimethylpyrimido[4′,5′:4,5]furo[2,3-c]pyridazin-8-yl)amino]methyl]phenyl]propan-2-ol], under setting [1], the Emax (in general, the size of the effect at its maximum, as opposed to the concentration needed) amounted to 61.2%. The EC50 (in general, the concentration that produces a half-maximal response) under setting [2] worked out at 2290 nM.

With `Cc1nnc2oc3c(NCc4cccc(C5(O)CCC5)c4)ncnc3c2c1C` [Compound 300, 1-[3-[[(3,4-dimethylpyrimido [4′,5′:4,5]furo[2,3-c]pyridazin-8-yl)amino]methyl]phenyl]cyclobutanol], under setting [3], the maximal effect (Emax) was 61.1%.

For the molecule `COCC1CN(C(=O)c2ccc(CNc3ncnc4c3sc3nnc(C)c(C)c34)cc2)C1` [Compound 127, [4-[[(3,4-dimethylpyrimido [4′,5′:4,5]thieno[2,3-c]pyridazin-8-yl)amino]methyl]phenyl]-[3-(methoxymethyl)azetidin-1-yl] methanone], under setting [4], the EC50 amounted to 463 nM. Further, under setting [3], the maximum response (Emax) came out at 88.4%.

For the molecule `Cc1nnc2oc3c(NC4CN(c5ccc(F)c(F)c5)C4)ncnc3c2c1C` [Compound 297, N-[1-(3,4-difluorophenyl)azetidin-3-yl]-3,4-dimethyl-pyrimido[4′,5′:4,5]furo [2,3-c]pyridazin-8-amine], the EC50 under setting [4] is 59.4 nM. The Emax under setting [3] came to 73%.

In the case of `COc1ccc(CNc2ncnc3c2sc2nnc(C)c(C)c23)cc1OC` [Compound 94, N-[(3,4-dimethoxyphenyl)methyl]-3,4-dimethyl-pyrimido[4′,5′:4,5]thieno [2,3-c]pyridazin-8-amine], the EC50 under setting [4] worked out at 639 nM. In addition, the maximal effect (Emax) under setting [3] amounted to 79.7%.

On to `Cc1cc(C)c2c(n1)sc1c(NCc3ccc(S(C)(=O)=O)cc3)ncnc12` [Compound 204, 7,9-dimethyl-N-[(4-methylsulfonylphenyl)methyl]pyrido [3′,2′:4,5]thieno[3,2-d] pyrimidin-4-amine], for which, under setting [4], the concentration giving a half-maximal response (EC50) came to 294 nM. Besides, under setting [3], the maximal effect (Emax) turned out to be 34.5%.

Regarding `Cc1c(Cl)cnc2sc3c(N4CCC4)ncnc3c12` [Compound 221, 4-(azetidin-1-yl)-8-chloro-9-methyl-pyrido[3′,2′:4,5] thieno[3,2-d] pyrimidine], the EC50 under setting [4] amounted to 867 nM. Further, the Emax under setting [3] was found to be 40.6%.

In the case of `Cc1c(Cl)cnc2sc3c(N4CCCC4)ncnc3c12` [Compound 215, 8-chloro-9-methyl-4-pyrrolidin-1-yl-pyrido [3′,2′:4,5]thieno[3,2-d] pyrimidine], under setting [4], the half-maximal effective concentration (EC50) was 5980 nM. Further, the maximum response (Emax) under setting [3] stood at 45%.

Regarding `Cc1nnc2sc3c(N4CCC(c5ccccc5)C4)ncnc3c2c1C` (stereo not shown) [Compound 28, 3,4-dimethyl-8-(3-phenylpyrrolidin-1-yl) pyrimido[4′,5′:4,5]thieno [2,3-c]pyridazine], the maximum response (Emax) under setting [1] was determined as 49%.

On to `Cc1nnc2sc3c(NCc4ccc(-c5cccs5)cc4)ncnc3c2c1C` [Compound 190, 3,4-dimethyl-N-[[4-(2-thienyl)phenyl]methyl] pyrimido[4′,5′:4,5]thieno [2,3-c]pyridazin-8-amine], for which, under setting [4], the concentration giving a half-maximal response (EC50) amounted to 3210 nM. The maximum response (Emax) under setting [3] came out at 90.8%.

On to `Cc1nnc2sc3c(NCc4ccc(F)c(C(=O)NCC(C)C)c4)ncnc3c2c1C` [Compound 180, 5-[[(3,4-dimethylpyrimido [4′,5′:4,5]thieno[2,3-c]pyridazin-8-yl)amino]methyl]-2-fluoro-N-isobutyl-benzamide], for which the EC50 under setting [4] is 1210 nM. Also, the Emax under setting [3] came to 97.6%.

For the molecule `Cc1nnc2sc3c(NCc4ccc(C(=O)N5CC6CC6C5)cc4)ncnc3c2c1C` (stereo not shown) [Compound 126, 3-azabicyclo[3.1.0] hexan-3-yl-[4-[[(3,4-dimethylpyrimido [4′,5′:4,5]thieno[2,3-c]pyridazin-8-yl)amino]methyl]phenyl] methanone], the concentration for a half-maximal effect (EC50) under setting [4] turned out to be 481 nM. Under setting [3], the maximum response (Emax) is 84.2%.

Regarding `Cc1nnc2sc3c(NCc4ccc(-c5cccn5C)cc4)ncnc3c2c1C` [Compound 341, 3,4-dimethyl-N-[[4-(1-methylpyrrol-2-yl)phenyl]methyl]pyrimido[4′,5′:4,5] thieno[2,3-c]pyridazin-8-amine], the concentration for a half-maximal effect (EC50) under setting [5] was determined as 1290 nM. Further, the maximum response (Emax) under setting [6] came to 81.2%.

`Cc1nnc2sc3c(NCc4ccc(C(=O)NC(C)C(C)(C)CO)cc4)ncnc3c2c1C` (stereo not shown) [Compound 158, 4-[[(3,4-dimethylpyrimido [4′,5′:4,5]thieno[2,3-c]pyridazin-8-yl)amino]methyl]-N-(3-hydroxy-1,2,2-trimethyl-propyl) benzamide]: under setting [4], the EC50 turned out to be 220 nM. Further, under setting [3], the maximum response (Emax) came out at 85%.

Take `Cc1nnc2sc3c(N4CCC(C(=O)Nc5ccccn5)C4)ncnc3c2c1C` (stereo not shown) [Compound 174, 1-(3,4-dimethylpyrimido [4′,5′:4,5]thieno[2,3-c]pyridazin-8-yl)-N-(2-pyridyl)pyrrolidine-3-carboxamide]: the EC50 under setting [4] stood at 748 nM. For the same molecule, the Emax under setting [3] amounted to 31%.

In the case of `Cc1nnc2sc3c(NCc4ccc(OC(F)F)nc4)ncnc3c2c1C` [Compound 90, N-[[6-(difluoromethoxy)-3-pyridyl]methyl]-3,4-dimethyl-pyrimido [4′,5′:4,5]thieno[2,3-c] pyridazin-8-amine], the EC50 under setting [4] turned out to be 277 nM. Also, under setting [3], the Emax was 76.7%.

On to `Cc1nnc2sc3c(NCc4ccc(C(=O)N5CCC(F)(F)C5)cc4)ncnc3c2c1C` [Compound 134, (3,3-difluoropyrrolidin-1-yl)-[4-[[(3,4-dimethylpyrimido [4′,5′:4,5]thieno[2,3-c]pyridazin-8-yl)amino]methyl]phenyl]methanone], for which the concentration giving a half-maximal response (EC50) under setting [4] came out at 469 nM. Moreover, under setting [3], the maximum response (Emax) is 91.8%.

Take `Cc1nnc2oc3c(NCc4ccc(C5(O)CCC5)cc4)ncnc3c2c1C` [Compound 64, 1-[4-[[(3,4-dimethylpyrimido [4′,5′:4,5]furo[2,3-c]pyridazin-8-yl)amino]methyl]phenyl] cyclobutanol]: the Emax under setting [1] was 58.2%. Also, the EC50 under setting [2] came to 862 nM.

Consider `Cc1nnc2sc3c(NC4CN(C(=O)OC(C)(C)C)C4)ncnc3c2c1C` [Compound 87, tert-butyl 3-[(3,4-dimethylpyrimido [4′,5′:4,5]thieno[2,3-c]pyridazin-8-yl)amino] azetidine-1-carboxylate], for which the EC50 under setting [4] was found to be 139 nM. In addition, the Emax under setting [3] is 70.5%.

Consider `Cc1nnc2sc3c(NCc4ccc(F)c(C(=O)N[C@H](C)C(F)(F)F)c4)ncnc3c2c1C` [Compound 182, 5-[[(3,4-dimethylpyrimido [4′,5′:4,5]thieno[2,3-c]pyridazin-8-yl)amino]methyl]-2-fluoro-N-[(1R)-2,2,2-trifluoro-1-methyl-ethyl]benzamide], for which the EC50 under setting [4] is 1170 nM. For the same molecule, under setting [3], the Emax stood at 97.2%.

Turning to `Cc1cc(CNc2ncnc3c2sc2nnc(C)c(C)c23)ccc1C(C)(C)O` [Compound 334, 2-[4-[[(3,4-dimethylpyrimido [4′,5′:4,5]thieno[2,3-c]pyridazin-8-yl)amino]methyl]-2-methyl-phenyl]propan-2-ol], under setting [6], the Emax came out at 90.6%.

In the case of `Cc1nnc2sc3c(NC4CCN(c5ccccc5)C4)ncnc3c2c1C` (stereo not shown) [Compound 23, 3,4-dimethyl-N-(1-phenylpyrrolidin-3-yl) pyrimido[4′,5′:4,5]thieno [2,3-c]pyridazin-8-amine], the Emax under setting [1] is 27%. The EC50 under setting [2] was no less than 10000 nM.

As for `Cc1nnc2sc3c(NCc4ccc(CN5CCCC5C(C)(C)O)cc4)ncnc3c2c1C` (stereo not shown) [Compound 117, 2-[1-[[4-[[(3,4-dimethylpyrimido [4′,5′:4,5]thieno[2,3-c]pyridazin-8-yl)amino]methyl]phenyl]methyl]pyrrolidin-2-yl]propan-2-ol], the EC50 under setting [4] was determined as 49.1 nM. Further, the Emax under setting [3] came to 108%.

As for `Cc1nnc2sc3c(NCc4ccc(C(C)(O)CO)cc4)ncnc3c2c1C` (stereo not shown) [Compound 373, 2-[4-[[(3,4-dimethylpyrimido[4′,5′:4,5]thieno[2,3-c]pyridazin-8-yl)amino]methyl]phenyl] propane-1,2-diol], the 50% effective concentration (EC50) is 69.2 nM. Also, the Emax under setting [6] worked out at 98%.

`Cc1cc(C)c2c(n1)oc1c(NC3CCC3)ncnc12` [Compound 55, N-Cyclobutyl-7,9-dimethyl-pyrido[3′,2′:4,5]furo[3,2-d]pyrimidin-4-amine hydrochloride]: the Emax turned out to be 44.2%. For the same molecule, the EC50 under setting [2] was 1590 nM.

With `Cc1nnc2oc3c(NC4CCCC4)ncnc3c2c1C` [Compound 304, N-cyclopentyl-3,4-dimethyl-pyrimido [4′,5′:4,5]furo[2,3-c]pyridazin-8-amine], the EC50 under setting [4] was found to be 818 nM. Moreover, the maximal response (Emax) under setting [3] is 45.9%.

In the case of `COc1nnc2sc3c(NCc4ccc(C(C)(C)O)cc4)ncnc3c2c1C` [Compound 280, 2-[4-[[(3-methoxy-4-methyl-pyrimido [4′,5′:4,5]thieno[2,3-c]pyridazin-8-yl)amino]methyl]phenyl]propan-2-ol], under setting [3], the maximum response (Emax) came out at 86.7%.

Turning to `Cc1nnc2sc3c(NCc4ccc(C(=O)NC5CC(F)(F)C5)c(Cl)c4)ncnc3c2c1C` [Compound 322, 2-chloro-N-(3,3-difluorocyclobutyl)-4-[[(3,4-dimethylpyrimido [4′,5′:4,5]thieno[2,3-c]pyridazin-8-yl)amino]methyl]benzamide], the half-maximal effective concentration (EC50) under setting [5] was determined as 197 nM. Besides, the Emax under setting [6] was 81.6%.

The record behind these values is patent US10239887B2, “Positive allosteric modulators of the muscarinic acetylcholine receptor M4” (Vanderbilt University, priority 2016, dated 2019).
